Experiment [1] can be described thus: Non-blinded test of active adhering dissolving discs in additional subjects. Type of experiment: in vivo, human. An excerpt: (§1) Troches in the form of dissolving muco-adhesive tablets may be made by pressing powders including mucoadhesive hydrocolloids. A preferred form of such an adhering troche may be made by mixing dry powders consisting of 80 percent acacia gum (gum arabic) for adhesive and 20 percent xylitol for flavor, then adding up to 1 percent carboxymethylcellulose (CMC), to enhance mouth feel, moderate adhesiveness of the acacia gum, and slow dissolution, and about 500 micrograms of cobalamin. The tablet may be pressed into the shape shown in FIG. 3 for good adhesion to a tooth. Such a tablet is suitably about 8 mm in diameter and about 85 milligrams in weight.
(§2) The typical instruction to users is to stick a troche in their mouths, just before they go to sleep, between teeth and cheek, placing it on the tongue side of the teeth if the patient suffers particularly from ulcers on or under the tongue and otherwise placing it on the cheek side. In greater detail, the instructions state: “Use after brushing teeth, at least one disc per day, and allow to dissolve for 30 minutes with nothing else in your mouth. In an area of your mouth where you experience sores, use your tongue to hold the dimpled side of the disc against a tooth until it adheres. The disc will slowly dissolve over 10 to 40 minutes, releasing cobalamin which is absorbed directly into the mouth lining tissues. […]

The nature of experiment [2]: Placebo-controlled test of adhering dissolving discs, one each day, in subjects with minor RAU at least monthly. Type of experiment: in vivo, human. The note with it: active group, seven subjects, discs with 500 mcg methylcobalamin, 30 discs, placebo discs with red food coloring.
Excerpt: as §1, §2

As to `C/C1=C2/[N-][C@H]([C@H](CC(N)=O)[C@@]2(C)CCC(=O)NC[C@@H](C)OP(=O)([O-])O[C@H]2[C@@H](O)[C@@H](n3cnc4cc(C)c(C)cc43)O[C@@H]2CO)[C@]2(C)N=C(/C(C)=C3N=C(/C=C4N=C1[C@@H](CCC(N)=O)C\4(C)C)[C@@H](CCC(N)=O)[C@]\3(C)CC(N)=O)[C@@H](CCC(N)=O)[C@]2(C)CC(N)=O.[CH3-].[Co+3]` [methylcobalamin], the “time after stopping the discs until an ulcer with a pain level like before starting (mean)” value in experiment [1] (five subjects who reported a benefit and stopped using the discs) was 4.8 days. For the same molecule, the “subjects who reported a benefit of using the discs” value in experiment [1] (twenty-five additional non-blinded subjects, active discs with 500 mcg methylcobalamin) is recorded as 96%. In addition, the “subjects who reported a benefit (reduced frequency of minor RAU, reduced duration of ulcers, or reduced peak pain levels)” value in experiment [2] is 100%.

Source of the values: patent US20150320787A1, “COBALAMIN COMPOSITIONS AND METHODS FOR TREATING OR PREVENTING MUCOSITIS” (OraHealth Corp., priority 2006, published 2015).
